Measured values as given in patent US11292770B2, “Pyridazinone herbicides” (FMC Corporation, priority 2017, dated 2022).

Key:
Type in all cases: in vivo
[1] = test system: rice (Oryza sativa); assay: Test B flooded paddy test, rice; conditions: Flood, 250 g ai/ha; scale of 0 to 100
Experimental: (§1) Plant species in the flooded paddy test selected from rice (Oryza sativa), sedge, umbrella (small-flower umbrella sedge, Cyperus difformis), ducksalad (Heteranthera limosa), and barnyardgrass (Echinochloa crus-galli) were grown to the 2-leaf stage for testing. At the time of treatment, test pots were flooded to 3 cm above the soil surface, treated by application of test compounds directly to the paddy water, and then maintained at that water depth for the duration of the test. Treated plants and controls were maintained in a greenhouse for 13 to 15 d, after which time all species were compared to controls and visually evaluated. Plant response ratings, summarized in Table B, are based on a scale of 0 to 100 where 0 is no effect and 100 is complete control. A dash (—) response means no test result.

[2] = test system: Foxtail, Giant; assay: Test A postemergence, foxtail, giant; conditions: 0 to 100 scale
[3] = test system: pigweed (Amaranthus retroflexus); assay: Test A preemergence, pigweed; conditions: 0 to 100 scale
Source text: (§2) Seeds of plant species selected from barnyardgrass (Echinochloa crus-galli), kochia (Kochia scoparia), ragweed (common ragweed, Ambrosia elation), ryegrass, Italian (Italian ryegrass, Lolium multiflorum), foxtail, green (green foxtail, Setaria viridis), and pigweed (Amaranthus retroflexus) were planted into a blend of loam soil and sand and treated preemergence with a directed soil spray using test chemicals formulated in a non-phytotoxic solvent mixture which included a surfactant. At the same time, plants selected from these weed species and also wheat (Triticum aestivum), corn (Zea mays), blackgrass (Alopecurus myosuroides), and galium (catchweed bedstraw, Galium aparine) were planted in pots containing the same blend of loam soil and sand and treated with postemergence applications of test chemicals formulated in the same manner Plants ranged in height from 2 to 10 cm and were in the one- to two-leaf stage for the postemergence treatment. Treated plants and untreated controls were maintained in a greenhouse for approximately 10 d, after which time all treated plants were compared to untreated controls and visually evaluated for injury. Plant response ratings, summarized in Table A, are based on a 0 to 100 scale where 0 is no effect and 100 is complete control. A dash (—) response means no test result.

[4] = test system: barnyardgrass (Echinochloa crus-galli); assay: Test A preemergence, barnyardgrass; conditions: 0 to 100 scale
Source text: as §2

[5] = test system: barnyardgrass (Echinochloa crus-galli); assay: Test B flooded paddy test, barnyardgrass; conditions: Flood, 250 g ai/ha; scale of 0 to 100, 0 no effect, 100 complete control
Experimental: as §1

[6] = test system: ryegrass, Italian (Italian ryegrass, Lolium multiflorum); assay: Test A preemergence, ryegrass, Italian; conditions: 0 to 100 scale
Source text: as §2

[7] = test system: kochia (Kochia scoparia); assay: Test A postemergence, kochia; conditions: 0 to 100 scale
Source text: as §2

[8] = test system: Foxtail, Giant; assay: Test A preemergence, foxtail, giant; conditions: 0 to 100 scale
[9] = test system: barnyardgrass (Echinochloa crus-galli); assay: Test A postemergence, barnyardgrass; conditions: 0 to 100 scale
Source text: as §2

[10] = test system: ducksalad (Heteranthera limosa); assay: Test B flooded paddy test, ducksalad; conditions: Flood, 250 g ai/ha; scale of 0 to 100
Experimental: as §1

[11] = test system: sedge, umbrella (small-flower umbrella sedge, Cyperus difformis); assay: Test B flooded paddy test, sedge, umbrella; conditions: Flood, 250 g ai/ha; scale of 0 to 100
Experimental: as §1

[12] = test system: galium (catchweed bedstraw, Galium aparine); assay: Test A postemergence, galium; conditions: 0 to 100 scale
Source text: as §2

[13] = test system: ryegrass, Italian (Italian ryegrass, Lolium multiflorum); assay: Test A postemergence, ryegrass, Italian; conditions: 0 to 100 scale
Source text: as §2

[14] = test system: wheat (Triticum aestivum); assay: Test A postemergence, wheat; conditions: 0 to 100 scale
Source text: as §2

[15] = test system: corn (Zea mays); assay: Test A postemergence, corn; conditions: 0 to 100 scale
Source text: as §2

[16] = test system: blackgrass (Alopecurus myosuroides); assay: Test A postemergence, blackgrass; conditions: 0 to 100 scale
Source text: as §2

[17] = test system: ragweed (common ragweed, Ambrosia elation); assay: Test A preemergence, ragweed; conditions: 0 to 100 scale
Source text: as §2

[18] = test system: ragweed (common ragweed, Ambrosia elation); assay: Test A postemergence, ragweed; conditions: 0 to 100 scale
Source text: as §2

[19] = test system: pigweed (Amaranthus retroflexus); assay: Test A postemergence, pigweed; conditions: 0 to 100 scale
Source text: as §2

[20] = test system: kochia (Kochia scoparia); assay: Test A preemergence, kochia; conditions: 0 to 100 scale
Source text: as §2

[21] = 125 g ai/ha, 0 no effect, 100 complete control

| SMILES | Plant response rating, Rice [1] | Plant response rating, Foxtail, Giant ([2]; 31 g ai/ha) | Plant response rating, Foxtail, Giant ([2]; 125 g ai/ha) | Plant response rating, Pigweed ([3]; 31 g ai/ha) | Plant response rating, Pigweed ([3]; 125 g ai/ha) | Plant response rating, Barnyardgrass ([4]; 31 g ai/ha) | Plant response rating, Barnyardgrass ([4]; 125 g ai/ha) | Plant response rating, Barnyardgrass [5] | Plant response rating, Ryegrass, Italian ([6]; 31 g ai/ha) | Plant response rating, Ryegrass, Italian ([6]; 125 g ai/ha) | Plant response rating, Kochia ([7]; 31 g ai/ha) | Plant response rating, Kochia ([7]; 125 g ai/ha) | Plant response rating, Foxtail, Giant ([8]; 31 g ai/ha) | Plant response rating, Foxtail, Giant ([8]; 125 g ai/ha) | Plant response rating, Barnyardgrass ([9]; 31 g ai/ha) | Plant response rating, Barnyardgrass [9, 21] | Plant response rating, Ducksalad [10] | Plant response rating, Sedge, Umbrella [11] | Plant response rating, Galium ([12]; 31 g ai/ha) | Plant response rating, Galium ([12]; 125 g ai/ha) | other results |
| --- | --- | --- | --- | --- | --- | --- | --- | --- | --- | --- | --- | --- | --- | --- | --- | --- | --- | --- | --- | --- | --- |
| CC(=O)Oc1c(Cl)nn(C)c(=O)c1-c1c2ccccc2cc2ccccc12 [Compound 6] | 0 | 0 | 20 | 80 | 100 | 0 | 0 | 0 | 30 | 30 | 0 | 20 | 0 | 10 | 0 | 10 | 85 | 95 | 80 | 100 | Plant response rating, Ryegrass, Italian ([13]; 31 g ai/ha): 20; Plant response rating, Ryegrass, Italian ([13]; 125 g ai/ha): 70; Plant response rating, Wheat ([14]; 31 g ai/ha): 10; Plant response rating, Wheat ([14]; 125 g ai/ha): 10; Plant response rating, Corn ([15]; 31 g ai/ha): 0; Plant response rating, Corn ([15]; 125 g ai/ha): 0; Plant response rating, Blackgrass ([16]; 31 g ai/ha): 0; Plant response rating, Blackgrass ([16]; 125 g ai/ha): 0; Plant response rating, Ragweed ([17]; 31 g ai/ha): 40; Plant response rating, Ragweed ([17]; 125 g ai/ha): 100; Plant response rating, Ragweed ([18]; 31 g ai/ha): 90; Plant response rating, Ragweed ([18]; 125 g ai/ha): 90; Plant response rating, Pigweed ([19]; 31 g ai/ha): 100; Plant response rating, Pigweed ([19]; 125 g ai/ha): 100; Plant response rating, Kochia ([20]; 31 g ai/ha): 0; Plant response rating, Kochia ([20]; 125 g ai/ha): 0 |
| C1COCCN1.Cn1nc(Cl)c(O)c(-c2c3ccccc3cc3ccccc23)c1=O [Compound 7] | 0 | 0 | 10 | 60 | 100 | 0 | 0 | 0 | 0 | 0 | 0 | 10 | 0 | 0 | 0 | 0 | 100 | 100 | 70 | 100 | Plant response rating, Ryegrass, Italian ([13]; 31 g ai/ha): 10; Plant response rating, Ryegrass, Italian ([13]; 125 g ai/ha): 60; Plant response rating, Wheat ([14]; 31 g ai/ha): 0; Plant response rating, Wheat ([14]; 125 g ai/ha): 0; Plant response rating, Corn ([15]; 31 g ai/ha): 10; Plant response rating, Corn ([15]; 125 g ai/ha): 10; Plant response rating, Blackgrass ([16]; 31 g ai/ha): 0; Plant response rating, Blackgrass ([16]; 125 g ai/ha): 10; Plant response rating, Ragweed ([17]; 31 g ai/ha): 0; Plant response rating, Ragweed ([17]; 125 g ai/ha): 40; Plant response rating, Ragweed ([18]; 31 g ai/ha): 90; Plant response rating, Ragweed ([18]; 125 g ai/ha): 100; Plant response rating, Pigweed ([19]; 31 g ai/ha): 100; Plant response rating, Pigweed ([19]; 125 g ai/ha): 100; Plant response rating, Kochia ([20]; 31 g ai/ha): 0; Plant response rating, Kochia ([20]; 125 g ai/ha): 0 |
